In US20230157996A1, “SMALL-MOLECULE INHIBITOR TARGETING EB VIRUS NUCLEAR ANTIGEN PROTEIN, PREPARATION METHOD AND USE THEREOF” (priority 2020, published 2023) one finds inhibition data, which are given here for 34 molecules.

Structures are written as SMILES.

The subject of this test is C666-1 cells. The test can be described thus: C666-1 cell viability single concentration (50 μM) inhibition rate (Resazurin). Type of test: cell-based. The conditions noted are these: Homo sapiens, C6661, 72 h, 50 μM compound, 72 hours, C666-1 cells; read-out: C666-1 cell viability single concentration (50 μM) inhibition rate, Ratio* (Inh %). As for the experimental part:
In order to assess the effect of the EBNA1 inhibitor at the cellular level, the cell proliferation inhibition rate was tested, and the inhibition rate of inhibitor at a specific concentration on the proliferation of Epstein-Barr virus positive cell line C666-1 was detected.
In the test, 100 μL C666-1 cells were inoculated in a transparent 96-well plate, and each well contained 5×10^3 cells. After the cells were cultured in an incubator with 5% carbon dioxide at 37° C. for 24 hours, 10 μL compound at a concentration of 500 μmol/L was added into the cells, so that the final concentration of the compound was 50 μmol/L. Two replicate wells were set for each compound, the wells treated with DMSO were set as control wells (Ctrl), and the wells with cell culture medium only were set as blank wells (blank), and they were treated in the incubator with carbon dioxide at 37° C. for 72 hours. The cell viability was assessed using a redox indicator Resazurin. Specifically, 10 μL Resazurin at a concentration of 600 umol/L was added into each well, and incubated at 37° C. for 3 hours, and a Tecan microplate reader was used to detect the fluorescence signal at an excitation wavelength of 560 nm and an emission wavelength of 590 nm. The formula inh %=1−(F−Fblank)/(FCtrl−Fblank)×100% (where, F is the fluorescence intensity of the compound-added wells, FCtrl and Fblank are the readings of the control wells and blank wells, respectively) was used to calculate the inhibition rate of the compound on the proliferation of C666-1 cells, so as to assess the activity of the compound on Epstein-Barr virus positive cells.

Turning to `COc1ccc(C(OC(C)=O)C23CC(c4cccc(C(=O)O)c4)(C2)C3)cc1` (stereo not shown) [Compound 1, 3-(3-(acetoxyl(4-methoxyphenyl)methyl)bicyclo[1. 1.1]pentan-1-yl)benzoic acid], the inhibition at 50 µM was under 10%.
In the case of `CC(=O)OC(c1ccc(C(F)(F)F)nc1)C12CC(c3cccc(C(=O)O)c3)(C1)C2` (stereo not shown) [Compound 2, 3-(3-(acetoxyl(6-(trifluoromethyl)pyridin-3-yl)methyl)bicyclo[1.1.1]pentan-1-yl)benzoic acid] it was under 10%; in that of `O=C(O)c1cccc(C23CC(C(O)c4ccc(C(F)(F)F)nc4)(C2)C3)c1` (stereo not shown) [Compound 3, 3-(3-(hydroxyl(6-(trifluoromethyl)pyridin-3-yl)methyl)bicyclo[1.1.1]pentan-1-yl)benzoic acid], under 10%; in that of `O=C(O)c1cccc(C23CC(c4ccccc4)(C2)C3)c1` [Compound 4, 3-(3-phenylbicyclo[1.1.1]pentan-1-yl)benzoic acid], under 10%.
In the case of `COC(=O)c1cccc(C23CC(c4ccccc4)(C2)C3)c1-n1cccc1` [Compound 5, Methyl 3-(3-phenylbicyclo[1.1.1]pentan-1-yl)-2-(1H-pyrrol-1-yl)benzoate] it was under 10%; in that of `O=C(O)c1cccc(C23CC(c4ccccc4)(C2)C3)c1-n1cccc1` [Compound 6, 3-(3-phenylbicyclo[1.1.1]pentan-1-yl)-2-(1H-pyrrol-1-yl)benzoic acid], under 10%; in that of `COC(=O)c1cccc(C23CC(c4ccc(OC)cc4)(C2)C3)c1-n1cccc1` [Compound 7, Methyl 3-(3-(4-methoxyphenyl)bicyclo[1.1.1]pentan-1-yl)-2-(1H-pyrrol-1-yl)benzoate], under 10%.
Turning to `COc1ccc(C23CC(c4cccc(C(=O)O)c4-n4cccc4)(C2)C3)cc1` [Compound 8, 3-(3-(4-methoxyphenyl)bicyclo[1.1.1]pentan-1-yl)-2-(1H-pyrrol-1-yl)benzoic acid], the inhibition at 50 µM is under 10%.
`COC(=O)c1cccc(N2CC3(CN(c4ccccc4)C3)C2)c1N` [Compound 9, Methyl 2-amino-3-(6-phenyl-2,6-diazaspiro[3.3]heptan-2-yl)benzoate]: the inhibition at 50 µM is 10 to 30%.
In the case of `Nc1c(C(=O)O)cccc1N1CC2(CN(c3ccccc3)C2)C1` [Compound 10, 2-amino-3-(6-phenyl-2,6-diazaspiro[3.3]heptan-2-yl)benzoic acid] it was under 10%; in that of `O=C(O)c1cccc(N2CC3(CN(c4ccccc4)C3)C2)c1-n1cccc1` [Compound 11, 3-(6-phenyl-2,6-diazaspiro[3.3]heptan-2-yl)-2-(1H-pyrrol-1-yl)benzoic acid], under 10%; in that of `Nc1ccccc1N1CC2(C1)CN(c1cccc(C(=O)O)c1N)C2` [Compound 12, 2-amino-3-(6-(2-aminophenyl)-2,6-diazaspiro[3.3]heptan-2-yl)benzoic acid], under 10%.
On to `COC(=O)c1cccc(N2CC3(CN(c4ccc(N)cc4)C3)C2)c1N` [Compound 13, Methyl 2-amino-3-(6-(4-aminophenyl)-2,6-diazaspiro[3.3]heptan-2-yl)benzoate], for which the inhibition at 50 µM was over 50%.
The figure for `Nc1ccc(N2CC3(C2)CN(c2cccc(C(=O)O)c2N)C3)cc1` [Compound 14, 2-amino-3-(6-(4-aminophenyl)-2,6-diazaspiro[3.3]heptan-2-yl)benzoic acid] is under 10%; for `COC(=O)c1cccc(N2CC3(C2)CN(c2cccc(C(=O)OC)c2N)C3)c1` [Compound 15, Methyl 2-amino-3-(6-(3-(methoxycarbonyl)phenyl)-2,6-diazaspiro[3.3]heptan-2-yl)benzoate] it is under 10%.
The figure for `Nc1c(C(=O)O)cccc1N1CC2(CN(c3cccc(C(=O)O)c3)C2)C1` [Compound 16, 2-amino-3-(6-(3-carboxylphenyl)-2,6-diazaspiro[3.3]heptan-2-yl)benzoic acid] is under 10%; for `COC(=O)c1cccc(N2CC3(C2)CN(c2cccc(C(=O)OC)c2-n2cccc2)C3)c1` [Compound 17, Methyl 3-(6-(3-(methoxycarbonyl)phenyl)-2,6-diazaspiro[3.3]heptan-2-yl)-2-(1H-pyrrol-1-yl)benzoate] it is 10 to 30%; for `O=C(O)c1cccc(N2CC3(C2)CN(c2cccc(C(=O)O)c2-n2cccc2)C3)c1` [Compound 18, 3-(6-(3-carboxylphenyl)-2,6-diazaspiro[3.3]heptan-2-yl)-2-(1H-pyrrol-1-yl)benzoic acid] it is under 10%.
With `COC(=O)c1cccc(N2CC3(CN(c4ccccc4N)C3)C2)c1-n1cccc1` [Compound 19, Methyl 3-(6-(2-aminophenyl)-2,6-diazaspiro[3.3]heptan-2-yl)-2-(1H-pyrrol-1-yl)benzoate], the inhibition at 50 µM is over 50%.
In the case of `Nc1ccccc1N1CC2(C1)CN(c1cccc(C(=O)O)c1-n1cccc1)C2` [Compound 20, 3-(6-(2-aminophenyl)-2,6-diazaspiro[3.3]heptan-2-yl)-2-(1H-pyrrol-1-yl)benzoic acid], the inhibition at 50 µM is under 10%.
With `COC(=O)c1cccc(N2CC3(CN(c4ccccc4[N+](=O)[O-])C3)C2)c1-n1cccc1` [Compound 21, Methyl 3-(6-(2-nitrophenyl)-2,6-diazaspiro[3.3]heptan-2-yl)-2-(1H-pyrrol-1-yl)benzoate], the inhibition at 50 µM is 10 to 30%.
The figure for `O=C(O)c1cccc(N2CC3(CN(c4ccccc4[N+](=O)[O-])C3)C2)c1-n1cccc1` [Compound 22, 3-(6-(2-nitrophenyl)-2,6-diazaspiro[3.3]heptan-2-yl)-2-(1H-pyrrol-1-yl)benzoic acid] is under 10%; for `COC(=O)c1ccc(N2CC3(C2)CN(c2cccc(C(=O)OC)c2-n2cccc2)C3)cc1` [Compound 23, Methyl 3-(6-(4-(methoxycarbonyl)phenyl)-2,6-diazaspiro[3.3]heptan-2-yl)-2-(1H-pyrrol-1-yl)benzoate] it is under 10%; for `O=C(O)c1ccc(N2CC3(C2)CN(c2cccc(C(=O)O)c2-n2cccc2)C3)cc1` [Compound 24, 3-(6-(4-carboxylphenyl)-2,6-diazaspiro[3.3]heptan-2-yl)-2-(1H-pyrrol-1-yl)benzoic acid] it is under 10%.
Take `COC(=O)c1cccc(N2CC3(CN(c4cccc([N+](=O)[O-])c4)C3)C2)c1[N+](=O)[O-]` [Compound 25, Methyl 3-(6-(3-nitrophenyl)-2,6-diazaspiro[3.3]heptan-2-yl)-2-nitrobenzoate]: the inhibition at 50 µM fell in the range of 10 to 30%.
In the case of `O=C(O)c1cccc(N2CC3(CN(c4cccc([N+](=O)[O-])c4)C3)C2)c1[N+](=O)[O-]` [Compound 26, 3-(6-(3-nitrophenyl)-2,6-diazaspiro[3.3]heptan-2-yl)-2-nitrobenzoic acid], the inhibition at 50 µM was under 10%.
In the case of `COC(=O)c1cccc(N2CC3(CN(c4cccc(NS(C)(=O)=O)c4)C3)C2)c1[N+](=O)[O-]` [Compound 27, Methyl 3-(6-(3-(methylsulfonamido)phenyl)-2,6-diazaspiro[3.3]heptan-2-yl)-2-nitrobenzoate] it was under 10%; in that of `CS(=O)(=O)Nc1cccc(N2CC3(C2)CN(c2cccc(C(=O)O)c2[N+](=O)[O-])C3)c1` [Compound 28, 3-(6-(3-(methylsulfonamido)phenyl)-2,6-diazaspiro[3.3]heptan-2-yl)-2-nitrobenzoic acid], under 10%; in that of `COC(=O)c1cccc(N2CC3(CN(c4cccc(NC(C)=O)c4)C3)C2)c1N` [Compound 29, Methyl 3-(6-(3-acetylaminophenyl)-2,6-diazaspiro[3.3]heptan-2-yl)-2-aminobenzoate], 10 to 30%.
Consider `CC(=O)Nc1cccc(N2CC3(C2)CN(c2cccc(C(=O)O)c2N)C3)c1` [Compound 30, 3-(6-(3-acetylaminophenyl)-2,6-diazaspiro[3.3]heptan-2-yl)-2-aminobenzoic acid], for which the inhibition at 50 µM was under 10%.
Turning to `COC(=O)c1cccc(N2CC3(CN(c4cccc(NS(=O)(=O)C5CC5)c4)C3)C2)c1N` [Compound 31, Methyl 2-amino-3-(6-(3-(cyclopropylsulfonamido)phenyl)-2,6-diazaspiro[3.3]heptan-2-yl)benzoate], the inhibition at 50 µM was in the range of 10 to 30%.
The figure for `Nc1c(C(=O)O)cccc1N1CC2(CN(c3cccc(NS(=O)(=O)C4CC4)c3)C2)C1` [Compound 32, 2-amino-3-(6-(3-(cyclopropylsulfonamido)phenyl)-2,6-diazaspiro[3.3]heptan-2-yl)benzoic acid] is under 10%; for `COC(=O)c1cccc(N2CC3(CN(c4cccc(N)c4)C3)C2)c1N` [Compound 33, Methyl 2-amino-3-(6-(3-aminophenyl)-2,6-diazaspiro[3.3]heptan-2-yl)benzoate] it is 10 to 30%; for `Nc1cccc(N2CC3(C2)CN(c2cccc(C(=O)O)c2N)C3)c1` [Compound 34, 2-amino-3-(6-(3aminophenyl)-2,6-diazaspiro[3.3]heptan-2-yl)benzoic acid] it is under 10%.
